In US20080119462A1, “METHOD FOR TREATING VASCULAR HYPERPERMEABLE DISEASE” (Sucampo AG, priority 2003, published 2008):

Tests used:
Human plasma SSAO = biological target: T1, Human plasma SSAO (Homo sapiens, UniProt Q16853); assay: Radiochemical-enzyme assay of VAP-1 enzyme (SSAO) activity with 14C-benzylamine, human plasma; assay type: biochemical
T1 construct: The enzyme suspension prepared from blood plasma was pre-incubated with Compound A; from tissue; host or cells: human blood plasma
T1 sequence (Q16853 27-763 limits assumed): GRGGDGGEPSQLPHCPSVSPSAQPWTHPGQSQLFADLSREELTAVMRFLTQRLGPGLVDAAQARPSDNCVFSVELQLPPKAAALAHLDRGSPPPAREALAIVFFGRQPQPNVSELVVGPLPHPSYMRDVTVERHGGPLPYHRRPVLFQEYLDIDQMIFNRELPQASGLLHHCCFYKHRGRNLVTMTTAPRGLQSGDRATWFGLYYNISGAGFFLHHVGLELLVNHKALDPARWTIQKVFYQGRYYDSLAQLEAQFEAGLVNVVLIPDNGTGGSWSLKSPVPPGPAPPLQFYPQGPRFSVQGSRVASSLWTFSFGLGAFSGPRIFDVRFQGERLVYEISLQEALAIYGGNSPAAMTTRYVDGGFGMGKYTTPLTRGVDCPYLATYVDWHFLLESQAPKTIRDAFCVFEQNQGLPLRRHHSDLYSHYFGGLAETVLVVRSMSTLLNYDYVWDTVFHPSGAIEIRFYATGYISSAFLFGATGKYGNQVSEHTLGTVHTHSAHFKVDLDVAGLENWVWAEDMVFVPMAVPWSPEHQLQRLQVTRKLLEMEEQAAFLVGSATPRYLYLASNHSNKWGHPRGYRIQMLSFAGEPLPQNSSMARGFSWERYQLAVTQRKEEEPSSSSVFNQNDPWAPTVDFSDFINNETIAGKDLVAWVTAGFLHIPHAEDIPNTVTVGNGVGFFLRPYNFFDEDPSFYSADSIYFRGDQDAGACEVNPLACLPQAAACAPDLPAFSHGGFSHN
Method: (§1) VAP-1 enzyme (SSAO) activity in both human and rat plasma was determined by a radiochemical-enzyme assay using ^14C-benzylamine as artificial substrate. The enzyme suspension prepared from blood plasma was pre-incubated with Compound A in 96-well microplate at room temperature for 30 min. The enzyme suspension was then incubated with ^14C-benzylamine (2×10^−5 mol/l final concentration) in a final volume of 50 μl at 37° C. for 1 hour. The enzyme reaction was terminated by adding 2 mol/l (50 μl) citric acid. The oxidized products were directly extracted into a 200 μl toluene scintillator, and its radioactivity was measured by a scintillation spectrometer. Monoamine oxidase (MAO) and diamine oxidase (DAO, histaminase) activities were also determined by similar method using ^14C-phenylethylamine and ^14C-putrescine as substrate, respectively. Cloned DAO from cDNA libraries was used in human DAO assay. Inhibition activity was expressed as IC50 (μmol/l) value.

Human platelet MAO = biological target: T2, Human platelet MAO (Homo sapiens, UniProt P27338); assay: Monoamine oxidase (MAO) activity assay with 14C-phenylethylamine; assay type: biochemical
T2 construct: human platelet MAO; from tissue; host or cells: human platelets
T2 sequence (P27338 1-520): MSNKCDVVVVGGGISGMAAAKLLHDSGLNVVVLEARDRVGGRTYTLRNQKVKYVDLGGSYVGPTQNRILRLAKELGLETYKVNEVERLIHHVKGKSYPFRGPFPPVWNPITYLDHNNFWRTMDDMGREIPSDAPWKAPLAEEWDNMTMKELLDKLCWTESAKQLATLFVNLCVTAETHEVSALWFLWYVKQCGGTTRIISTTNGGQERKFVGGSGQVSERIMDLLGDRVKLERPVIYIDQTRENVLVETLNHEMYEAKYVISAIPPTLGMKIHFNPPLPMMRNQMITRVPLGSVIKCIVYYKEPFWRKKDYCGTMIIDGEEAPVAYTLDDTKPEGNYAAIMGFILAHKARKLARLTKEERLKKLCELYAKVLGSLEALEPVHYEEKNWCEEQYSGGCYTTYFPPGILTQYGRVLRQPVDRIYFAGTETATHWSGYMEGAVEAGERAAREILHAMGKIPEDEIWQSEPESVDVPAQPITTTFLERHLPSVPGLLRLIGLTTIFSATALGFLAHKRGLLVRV
Method: as §1

plasma SSAO = biological target: T3, plasma SSAO (Rattus norvegicus, UniProt O08590); assay: Plasma SSAO activity in STZ diabetic rats after treatment; assay type: in vivo
T3 construct: The enzyme suspension prepared from blood plasma was pre-incubated with Compound A; from tissue; host or cells: rat blood plasma
T3 sequence (O08590 27-763 limits assumed): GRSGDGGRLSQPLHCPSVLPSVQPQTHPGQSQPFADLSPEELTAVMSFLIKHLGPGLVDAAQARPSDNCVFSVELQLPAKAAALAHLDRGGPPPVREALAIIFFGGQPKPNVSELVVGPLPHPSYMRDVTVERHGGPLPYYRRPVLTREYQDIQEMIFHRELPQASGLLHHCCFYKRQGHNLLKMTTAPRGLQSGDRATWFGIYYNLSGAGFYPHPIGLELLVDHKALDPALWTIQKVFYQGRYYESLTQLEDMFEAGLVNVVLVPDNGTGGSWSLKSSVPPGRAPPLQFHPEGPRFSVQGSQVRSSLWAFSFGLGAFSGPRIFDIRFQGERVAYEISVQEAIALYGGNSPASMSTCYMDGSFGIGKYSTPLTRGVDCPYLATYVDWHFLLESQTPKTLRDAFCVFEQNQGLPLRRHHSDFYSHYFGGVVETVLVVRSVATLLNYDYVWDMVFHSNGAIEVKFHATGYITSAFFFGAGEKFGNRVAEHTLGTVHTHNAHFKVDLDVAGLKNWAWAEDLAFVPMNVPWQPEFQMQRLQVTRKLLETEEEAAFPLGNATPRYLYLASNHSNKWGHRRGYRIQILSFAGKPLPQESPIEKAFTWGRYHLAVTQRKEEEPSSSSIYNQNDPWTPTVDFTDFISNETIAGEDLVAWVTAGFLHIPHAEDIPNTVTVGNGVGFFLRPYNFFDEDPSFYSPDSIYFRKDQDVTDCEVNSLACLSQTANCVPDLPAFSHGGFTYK
Method: Diabetes in rats was induced with an intraperitoneal (i.p.) injection of 65 mg/ml/kg of streptozotocin (STZ) in 2 mmol/l citrate buffer (pH 4.5) after a 20-h fast. At the same time control rats were injected with an equal volume of 2 mmol/l citrate buffer. Plasma glucose level was checked by a calorimetric method. At day 3 of STZ treatment, the rats were diagnosed with diabetes showing a plasma glucose level of 350 mg/dl.
The treatment of Compound A was given daily from 2 weeks after STZ treatment for 2 weeks. At 24 hrs after final treatment of Compound A, the vascular permeability in oculus was investigated based on the leakage of dye into the vitreous 30 min after intravenous injection of fluorescein solution (40 mg/ml/kg). Permeability was expressed as vitreous/plasma ratio of fluorescein concentration measured by a fluorophotometer. At the same time, the plasma SSAO activity was checked by the radiochemical-enzyme assay using ^14C-benzylamine (2×10^−5 mol/l final concentration) as substrate.

Inhibition of the enzyme activity of human plasma SSAO (in words) (Human plasma SSAO): completely inhibited
IC50 (Human plasma SSAO; 30 min pre-incubation, 14C-benzylamine 2×10^−5 mol/l, 37° C., 1 hour, read-out: Inhibitory effect (IC50 values) Human plasma SSAO): 150 nM
Inhibition of the enzyme activity of human platelet MAO (in words) (Human platelet MAO): not
IC50 (Human platelet MAO; 14C-phenylethylamine as substrate, read-out: Inhibitory effect (IC50 values) Human platelet MAO): > 100 µM
Effect on the increased plasma SSAO activity in diabetic rats (in words) (plasma SSAO; 4 weeks after STZ treatment): dose-dependent inhibition
Plasma SSAO activity (plasma SSAO; STZ diabetic rats, 4 weeks after STZ, Compound A treatment daily from 2 weeks after STZ, mean ± S.E.M., 10 rats): 2.51 ± 0.26 pmol/min/mL
SMILES: CC(=O)Nc1nc(CCc2ccc(NC(=N)N)cc2)cs1 [Compound A, N-{4-[2-(4-{[amino(imino)methyl]amino}phenyl)ethyl]-1,3-thiazol-2-yl}acetamide]
